Drawing on patent US20230113037A1 (Bayer Aktiengesellschaft, priority 2019, published 2023), this text covers IC50 for 20 compounds.

SMILES strings stand for the structures. Read-outs that look alike come from different tables or passages of the source.

Test [1] has as its target T1, AHR (Homo sapiens, UniProt P35869).
T1 construct: U87 MG glioblastoma cells (ATCC #HTB-14) endogenously expressing AHR; endogenous in cells; host or cells: U87 MG glioblastoma cells (ATCC #HTB-14)
T1 sequence (P35869 11-848): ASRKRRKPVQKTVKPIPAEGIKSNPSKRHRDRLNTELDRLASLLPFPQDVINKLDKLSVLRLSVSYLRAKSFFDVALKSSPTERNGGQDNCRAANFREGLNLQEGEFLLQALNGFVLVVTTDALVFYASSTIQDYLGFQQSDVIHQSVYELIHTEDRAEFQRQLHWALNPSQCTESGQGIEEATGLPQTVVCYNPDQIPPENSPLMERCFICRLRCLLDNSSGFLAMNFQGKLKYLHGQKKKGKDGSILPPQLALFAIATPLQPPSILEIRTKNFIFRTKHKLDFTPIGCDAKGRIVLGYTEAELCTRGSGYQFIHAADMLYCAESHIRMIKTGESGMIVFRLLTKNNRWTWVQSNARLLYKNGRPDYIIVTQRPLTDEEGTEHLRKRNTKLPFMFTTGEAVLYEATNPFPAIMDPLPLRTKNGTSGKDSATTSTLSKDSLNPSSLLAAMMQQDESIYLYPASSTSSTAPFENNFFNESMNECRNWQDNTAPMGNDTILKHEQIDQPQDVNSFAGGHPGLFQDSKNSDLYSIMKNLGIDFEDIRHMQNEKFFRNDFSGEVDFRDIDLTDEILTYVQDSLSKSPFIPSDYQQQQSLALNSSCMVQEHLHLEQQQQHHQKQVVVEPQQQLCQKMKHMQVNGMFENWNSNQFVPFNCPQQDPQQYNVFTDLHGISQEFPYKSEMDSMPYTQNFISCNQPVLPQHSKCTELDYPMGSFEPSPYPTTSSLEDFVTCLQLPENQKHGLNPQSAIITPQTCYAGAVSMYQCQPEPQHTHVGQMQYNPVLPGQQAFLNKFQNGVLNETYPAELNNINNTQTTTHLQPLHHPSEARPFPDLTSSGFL
The test can be described thus: In vitro assay 1: antagonism in human cell line (AHR transactivation, firefly luciferase reporter, kynurenic acid prestimulated). The class given is cell-based. The settings on record: AHR Antagonism Human IC50 [M]. In a few lines: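 U87 MG glioblastoma cells with endogenous AHR, stably carrying a DRE-driven firefly luciferase reporter and constitutive Renilla reporter, prestimulated with kynurenic acid before compound addition. Firefly and Renilla read by dual luciferase; Renilla flags toxicity; normalized to controls (150 μM kynurenic acid + 5 μM staurosporine as full inhibition); repeat values averaged or median.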
On the technique in general: A reporter such as luciferase makes a cellular process visible.

For test [2], the target named is T2, AHR (Mus musculus, UniProt P30561).
T2 sequence (P30561 1-848 P471L/N533S/M589L): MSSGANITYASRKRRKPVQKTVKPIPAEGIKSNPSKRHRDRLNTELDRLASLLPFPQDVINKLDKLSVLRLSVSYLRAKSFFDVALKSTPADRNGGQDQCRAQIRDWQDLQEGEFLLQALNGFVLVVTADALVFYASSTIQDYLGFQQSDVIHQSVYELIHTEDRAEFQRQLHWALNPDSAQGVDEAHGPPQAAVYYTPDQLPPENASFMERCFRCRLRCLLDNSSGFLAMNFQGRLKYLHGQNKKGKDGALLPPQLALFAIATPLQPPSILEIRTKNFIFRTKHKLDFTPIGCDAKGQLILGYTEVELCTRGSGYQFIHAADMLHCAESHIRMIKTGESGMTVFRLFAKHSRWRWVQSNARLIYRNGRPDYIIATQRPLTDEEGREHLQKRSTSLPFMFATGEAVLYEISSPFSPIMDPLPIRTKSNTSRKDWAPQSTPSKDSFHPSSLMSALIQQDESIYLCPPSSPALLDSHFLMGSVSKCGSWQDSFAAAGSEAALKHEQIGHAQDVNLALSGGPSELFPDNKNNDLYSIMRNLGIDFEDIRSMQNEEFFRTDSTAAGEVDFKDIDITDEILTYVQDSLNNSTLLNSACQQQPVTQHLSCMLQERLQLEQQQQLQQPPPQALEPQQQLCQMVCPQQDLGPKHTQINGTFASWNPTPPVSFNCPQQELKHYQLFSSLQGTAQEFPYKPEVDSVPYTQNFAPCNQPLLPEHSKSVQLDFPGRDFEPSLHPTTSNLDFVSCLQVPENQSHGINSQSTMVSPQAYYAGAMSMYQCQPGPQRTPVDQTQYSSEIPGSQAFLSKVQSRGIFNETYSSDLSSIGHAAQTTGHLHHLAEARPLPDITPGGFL
The test can be described thus: In vitro assay 3: antagonism in mouse cell line (AHR transactivation, firefly luciferase reporter, kynurenic acid prestimulated). Type of test: cell-based. Put shortly:
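Cells were first stimulated with kynurenic acid, then exposed to test compound, after which firefly luciferase from a DRE-containing AHR reporter was read out. Signal was scaled between positive and negative controls. Cells not given kynurenic acid provided the inhibition reference.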

[3] abbreviates: Hepa 1c1c7 cells, 200 μM kynurenic acid, 20 hours, firefly luciferase reporter, read-out: AHR Antagonism Mouse IC50.
The mark [4] stands for this setting: mouse Hepa 1c1c7 cells, 200 μM kynurenic acid, 20 hours, read-out: AHR Antagonism Mouse IC50.

Consider `CCCCNC(=O)[C@@H](CC)Nc1nc2c(Br)cccc2c2nc(-c3ccc(Cl)cc3OC(F)F)nn12` [Example 804, (2R)-2-({7-bromo-2-[4-chloro-2-(difluoromethoxy)phenyl][1,2,4]triazolo[1,5-c]quianzolin-5-yl}amino)-N-butylbutanamide], for which the IC50 (as a rule, the concentration that inhibits the measured activity by half) in test [1] (firefly luciferase reporter) came out at 6.42e-09 M; in test [2] (setting [3]) it was 3 nM.

With `C[C@@H]1CN(C(=O)[C@@H](C)Nc2nc3c(Br)cccc3c3nc(-c4cnn(C)c4)nn23)CCO1` [Example 906, (2R)-2-{[7-bromo-2-(1-methyl-1H-pyrazol-4-yl)[1,2,4]triazolo[1,5-c]quinazolin-5-yl]amino}-1-[(2R)-2-methylmorpholin-4-yl]propan-1-one], the IC50 in test [1] (firefly luciferase reporter) turned out to be 2.3e-08 M; in test [2] (setting [3]) it was 19.5 nM.

Turning to `CC(C)n1cc(-c2nc3c4cccc(C5CC5)c4nc(N[C@@H]4CCCCNC4=O)n3n2)cn1` [Example 820, (3R)-3-({7-cyclopropyl-2-[1-(propan-2-yl)-1H-pyrazol-4-yl][1,2,4]triazolo[1,5-c]quinazolin-5-yl}amino)azepan-2-one], the figures for the IC50 in test [1] (firefly luciferase reporter) and in test [2] (setting [3]) were 6.33e-09 M and 71.5 nM, respectively.

Consider `CS(=O)(=O)c1ccc(-c2nc3c4ccccc4nc(N[C@@H]4CNCCNC4=O)n3n2)cc1` [Example 714, (6R)-6-({2-[4-(methanesulfonyl)phenyl][1,2,4]triazolo[1,5-c]quinazolin-5-yl}amino)-1,4-diazepan-5-one], for which the half-maximal inhibitory concentration (IC50) in test [1] came out at 1.64e-07 M; in test [2] (setting [4]), 134 nM.

On to `O=C1NCCCC[C@H]1Nc1nc2ccccc2c2nc(-c3ccnc(F)c3)nn12` [Example 638, (3R)-3-{[2-(2-fluoropyridin-4-yl)[1,2,4]triazolo[1,5-c]quinazolin-5-yl]amino}azepan-2-one], for which the concentration for half-maximal inhibition (IC50) amounted to 4e-09 M in test [1] and 10.4 nM in test [2] (setting [4]).

Consider `O=C1NCCCC[C@H]1Nc1nc2ccccc2c2nc(-c3nc(C(F)(F)F)no3)nn12` [Example 136, (3R)-3-({2-[3-(trifluoromethyl)-1,2,4-oxadiazol-5-yl][1,2,4]triazolo[1,5-c]quinazolin-5-yl}amino)azepan-2-one], for which the IC50 in test [1] was 3.09e-08 M; in test [2] (setting [4]), 9.58 nM.

With `CCn1cc(-c2nc3c4ccccc4nc(N[C@@H]4CCCCNC4=O)n3n2)c(C)n1` [Example 66, (3R)-3-{[2-(1-ethyl-3-methyl-1H-pyrazol-4-yl)[1,2,4]triazolo[1,5-c]quinazolin-5-yl]amino}azepan-2-one], the IC50 in test [1] came out at 1.36e-09 M; in test [2] (setting [4]) it was 1.01 nM.

In the case of `CSc1ccc(-c2nc3c4ccccc4nc(N[C@@H]4CCCCNC4=O)n3n2)c(F)c1` [Example 630, (3R)-3-({2-[2-fluoro-4-(methylsulfanyl)phenyl][1,2,4]triazolo[1,5-c]quinazolin-5-yl}amino)azepan-2-one], the values for the IC50 in test [1] and in test [2] (setting [4]) were 4.83e-10 M and 0.861 nM, respectively.

Take `Cn1cc(-c2nc3c4cccc(C(F)(F)F)c4nc(N[C@H]4CCCCNC4=O)n3n2)cn1` [Example 584, (3S)-3-{[2-(1-methyl-1H-pyrazol-4-yl)-7-(trifluoromethyl)[1,2,4]triazolo[1,5-c]quinazolin-5-yl]amino}azepan-2-one]: the half-inhibitory concentration (IC50) was 4.39e-08 M in test [1] and 153 nM in test [2] (setting [4]).

With `COc1ccc(-c2nc3c4cccc(Br)c4nc(N[C@@H]4CS(=O)(=O)CCNC4=O)n3n2)cc1` [Example 851, (6S)-6-{[7-bromo-2-(4-methoxyphenyl)[1,2,4]triazolo[1,5-c]quinazolin-5-yl]amino}-1λ^6,4-thiazepane-1,1,5-trione], the IC50 in test [1] (firefly luciferase reporter) was 9.17e-10 M; in test [2] (read-out: AHR Antagonism Mouse IC50, Hepa 1c1c7 cells, 200 μM kynurenic acid, 20 hours, firefly luciferase reporter), 1.76 nM.

As for `COc1cccc(-c2nc3c4cc(F)ccc4nc(N[C@H]4CCCCNC4=O)n3n2)c1` [Example 160, (3S)-3-{[9-fluoro-2-(3-methoxyphenyl)[1,2,4]triazolo[1,5-c]quinazolin-5-yl]amino}azepan-2-one], the values for the IC50 in test [1] and in test [2] (setting [4]) were 1.43e-07 M and 15.4 nM, respectively.

Consider `O=C1NCCCCCC1Nc1nc2ccccc2c2nc(-c3cccc(OC(F)(F)F)c3)nn12` (stereo not shown) [Example 447, 3-({2-[3-(trifluoromethoxy)phenyl][1,2,4]triazolo[1,5-c]quinazolin-5-yl}amino)azocan-2-one], for which the figures for the IC50 in test [1] and in test [2] (setting [4]) were 2.27e-08 M and 11.3 nM, respectively.

As for `COc1cccc(-c2nc3c4ccccc4nc(N[C@H](C)C(=O)NCCCO)n3n2)c1` [Example 112, N-(3-hydroxypropyl)-N^2-[2-(3-methoxyphenyl)[1,2,4]triazolo[1,5-c]quinazolin-5-yl]-D-alaninamide], the IC50 in test [1] turned out to be 3.79e-08 M; in test [2] (setting [4]), 6 nM.

Consider `COc1cccc(-c2nc3c4ccccc4nc(N[C@@H](CO)C(N)=O)n3n2)c1` [Example 85, N^2-[2-(3-methoxyphenyl)[1,2,4]triazolo[1,5-c]quinazolin-5-yl]-L-serinamide], for which the 50% inhibitory concentration (IC50) in test [1] was found to be 4.95e-07 M; in test [2] (setting [4]), 229 nM.

As for `CNC(=O)[C@@H](C)Nc1nc2ccccc2c2nc(-c3cccc(OC)c3)nn12` [Example 108, N^2-[2-(3-methoxyphenyl)[1,2,4]triazolo[1,5-c]quinazolin-5-yl]-N-methyl-D-alaninamide], the concentration for half-maximal inhibition (IC50) in test [1] came out at 5.75e-09 M; in test [2] (setting [4]) it was 3.58 nM.

As for `CS(=N)(=O)c1ccc(-c2nc3c4ccccc4nc(N[C@@H]4CCCCNC4=O)n3n2)cc1` (single isomer, unassigned) [Example 307], the results for the half-inhibitory concentration (IC50) in test [1] and in test [2] (setting [4]) were 1.35e-07 M and 84.7 nM, respectively.

On to `CC(C)c1cccc2c1nc(N[C@@H]1CCCCNC1=O)n1nc(-c3cnn(C)c3)nc21` [Example 588, (3R)-3-{[2-(1-methyl-1H-pyrazol-4-yl)-7-(propan-2-yl)[1,2,4]triazolo[1,5-c]quinazolin-5-yl]amino}azepan-2-one], for which the values for the IC50 in test [1] and in test [2] (setting [4]) were 1.84e-08 M and 1060 nM, respectively.

For the compound `O=C1NCCNC[C@H]1Nc1nc2c(C(F)(F)F)cccc2c2nc(-c3ccc(F)cc3)nn12` [Example 423, (6R)-6-{[2-(4-fluorophenyl)-7-(trifluoromethyl)[1,2,4]triazolo[1,5-c]quinazolin-5-yl]amino}-1,4-diazepan-5-one], the results for the IC50 in test [1] and in test [2] (setting [4]) were 2.81e-10 M and 0.349 nM, respectively.

On to `COc1ccc(-c2nc3c4ccccc4nc(N[C@@H]4CCCCNC4=O)n3n2)c(OC(F)(F)F)c1` [Example 508, (3R)-3-({2-[4-methoxy-2-(trifluoromethoxy)phenyl][1,2,4]triazolo[1,5-c]quinazolin-5-yl}amino)azepan-2-one], for which the results for the IC50 in test [1] and in test [2] (setting [4]) were 3.53e-09 M and 4.21 nM, respectively.

Turning to `COc1ccc(-c2nc3c4ccccc4nc(N[C@H](C)C(=O)NCCN4CCN(C)CC4)n3n2)cc1` [Example 881, N^2-[2-(4-methoxyphenyl)[1,2,4]triazolo[1,5-c]quinazolin-5-yl]-N-[2-(4-methylpiperazin-1-yl)ethyl]-D-alaninamide], the IC50 was 6.04e-09 M in test [1] (firefly luciferase reporter) and 12.2 nM in test [2] (setting [3]).
